Counter-ions that a name gives are not always drawn.
Key:
[1] = Systemic safety indices: mortality 24 hours after intraperitoneal injection in rats; conditions: rat, in vivo, ip
Procedure: (§1) Essentially, each drug was injected intraperitoneally into the rats (n=8). The number of dead rats was observed after 24 hours, and the rate of mortality (%) was calculated. Thereafter, the doses of each drug and the relative mortality were plotted to obtain dose-mortality curves of the drugs. […] The safety index (LD50/ED50) of each drug was calculated using the LD50 thus obtained and the ED50 obtained in the section “C. Potency evaluation” of this example.

rats = test: as above
Procedure: as §1

Male Sprague-Dawley rats [2] = test: Spinal anesthetic effect (spinal blockade) after intrathecal injection in rats; type: in vivo; set-up: AUC of time-% PE curve, spinal blockade of motor function / AUC of time-% PE curve, spinal blockade of proprioception / AUC of time-% PE curve, spinal blockade of nociceptive reaction: unit not given beside the values
Procedure: Male Sprague-Dawley rats (weighing about 300 to 350 g); for each dose of each drug, n=6.
In brief, for preparation, the hairs on the back of each rat were shaved, and the shaved back was sterilized with iodine.
After three minutes, 50 μL of each of the tested drugs was injected via a 27-gauge needle attached to a 100-μL syringe (Hamilton, Reno, Nev.) into the intrathecal space between the fourth and fifth lumbar vertebrae. The development of spinal blockade was observed from the paralysis of the hind limbs of the rats.
The magnitude of nerve block (including blocking of motor function, proprioception, and nociceptive reaction) was expressed as the percentage of possible effect (hereinafter referred to as % PE), and the maximal value of % PE was expressed as the percentage of maximal possible effect (hereinafter referred to as % MPE).
Motor function was evaluated by measuring the extensor postural thrust of the right hind limbs of the rats using a digital platform balance (Mettler Toledo, Switzerland, model PB1502-S). To test the extensor postural thrust, the rat was held upright with the hind limb extended, so that the body weight of the rat was supported by the distal metatarsus and toes. The extensor postural thrust could be measured as the force of the right hind limb of the rat thrusting the platform balance.
A reduction in the force, resulting in extensor muscle tone, was considered as a motor deficit. A force less than 20 g (i.e., a weight of the “flaccid limb”) was considered absence of an extensor postural thrust or 100% motor block or 100% MPE.
Proprioception was evaluated based on resting posture and postural reactions (including tactile placing and hopping). First, the front half of the rat body and one of the hind limbs were lifted off the ground at the same time so that the rat was standing on one hind limb. Then, the rat was moved laterally, which normally evoked a prompt hopping response of the weight-bearing hind limb of the rat in the direction of movement so as to avoid falling. A predominantly proprioceptive block caused a delayed hopping followed by greater lateral hops. […] Functional deficits were classified into four grades: 3 (normal or 0% MPE), 2 (slightly impaired), 1 (severely impaired), and 0 (completely impaired or 100% MPE).
Nociceptive reaction was evaluated by the withdrawal reflex or vocalization elicited by the pinch of a skin fold over the back at 1 cm near the proximal part of the tail, the lateral metatarsus of the bilateral hind limbs, and the dorsal part of the mid-tail. At each testing time, only one pinch was given to each of the abovementioned four testing sites, and the time interval between stimulations at different sites was around 2 seconds. Nociceptive reactions were classified into five grades: 4 (normal or 0% MPE), 3 (25% MPE), 2 (50% MPE), 1 (75% MPE), and 0 (absent or 100% MPE).
The potency of each drug on spinal blockades was compared using ED50.
Duration was defined as the interval from injection of the tested drugs to complete recovery. The ED25, ED50 and ED75 obtained according to the SAS NLIN analysis in the preceding section “C. Potency evaluation” were used in this experiment.
Regarding the method of evaluating the effect of co-administration, dextromethorphan hydrobromide monohydrate was used as an example.
After the tests, the time of measurement of each drug and its corresponding % PE were plotted to obtain the time-% PE curves of each drug. The area under the curve (AUC) of time-% PE was calculated using the trapezoidal rule, and was used to evaluate the effect of the co-administration of the drugs.
Statistical software, SPSS for Windows® (version 10.0.7) was used. Data were represented as mean±SEM.

Male Sprague-Dawley rats [3] = test: Infiltrative cutaneous anesthesia (inhibition of cutaneous trunci muscle reflex, CTMR) after subcutaneous injection in rats; type: in vivo
Procedure: Male Sprague-Dawley rats (weighing about 200 to 250 g); for each dose of each drug, n=8.
In brief, hairs on the dorsal surface (about 10×10 cm^2) of the thoracolumbar region of the rat were shaved, and the shaved surface was sterilized with iodine for preparation. To reduce the number of animals used, the back of the rat was further divided into left and right parts. One drug was injected first at the right part. After a washout period of one week, another drug was injected at the left part.
0.6 mL of drug was injected subcutaneously under the dorsal surface of the thoracolumbar region of the rat using a 30-gauge needle attached to a syringe (Becton Drive, Franklin Lakes, USA). The subcutaneous injection would result in a circular elevation (i.e., a wheal) of the skin, about 2 cm in diameter. The elevation was marked with ink within 1 minute after injection.
CTMR refers to the reflex movement of the skin of the back caused by twitching of the lateral thoracispinal muscle in response to local dorsal cutaneous stimulation. Essentially, a von Frey filament (No.15; Somedic Sales AB, Sweden) to which a cut end of an 18-gauge needle was affixed was used to produce a standard nociceptive stimulus (strength: 19 g). Six pinpricks (at a frequency of 0.5-1 Hz) were applied to a single marked wheal during each test. […] For example, absence of any response to all of the 6 pinpricks was defined as a complete nociceptive block (i.e., 100% MPE).
The difference resided in that subcutaneous injections of ED25, ED50 and ED75 of the drugs were performed based on the method described in the section “A. Drug injection” of this example, and evaluation of the infiltrative cutaneous anesthetic effect was performed based on the method described in the section “B. Neurobehavioral evaluation” of this example.

[4] = intrathecal, rats, 2 ED50 when administered independently, ED50 of each drug when co-administered, mean ± SEM
[5] = spinal blockade, mean of motor function, proprioception and nociceptive reaction, intrathecal, rats
[6] = infiltrative cutaneous anesthesia, rats, 2ED50 when administered independently, ED50 for co-administration, mean ± SEM
[7] = infiltrative cutaneous anesthesia, subcutaneous injection, rats
[8] = subcutaneous dose of ED75, rats, mean±SEM

For `COc1ccc2c(c1)[C@]13CCCC[C@@H]1[C@H](C2)N(C)CC3` [Dextromethorphan hydrobromide monohydrate], the LD50 at 24 h [1] was 138 mg/kg, the “systemic safety index relative to that of lidocaine hydrochloride” value (rats; LD50/ED50, rats) was 2.4 times and the “safety index LD50/ED50” value (rats; LD50 intraperitoneal / ED50 of infiltrative cutaneous anesthesia, rats) was 67.3. The “% MPE of spinal blockades of motor function, proprioception and nociceptive reaction (range over the three functions)” value (Male Sprague-Dawley rats [2]; intrathecal dose of ED75, rats) was 66-80 % MPE, the “duration of spinal blockades of motor function, proprioception and nociceptive reaction (range over the three functions)” value (Male Sprague-Dawley rats [2]; intrathecal dose of ED75, rats) was 22 to 40 min and the “effect of co-administration with bupivacaine hydrochloride on spinal blockade” value (Male Sprague-Dawley rats [2]; intrathecal, rats, ED50 of each drug) was “additive effect”. For the same molecule, the “AUC of time-% PE curve, spinal blockade of motor function” value (Male Sprague-Dawley rats [2]; [4]) was 953 ± 114, the “AUC of time-% PE curve, spinal blockade of nociceptive reaction” value (Male Sprague-Dawley rats [2]; [4]) was 4131 ± 385 and the “AUC of time-% PE curve, spinal blockade of proprioception” value (Male Sprague-Dawley rats [2]; [4]) was 1985 ± 219. For the same molecule, the “Motor function ED50 (95% CI)” value (Male Sprague-Dawley rats [2]; spinal blockade of motor function, intrathecal injection, rats) was 0.56 (0.54–0.59) mg, the “Nociceptive reaction ED50 (95% CI)” value (Male Sprague-Dawley rats [2]; spinal blockade of nociceptive reaction, intrathecal injection, rats) was 0.46 (0.43–0.49) mg and the “Proprioception ED50 (95% CI)” value (Male Sprague-Dawley rats [2]; spinal blockade of proprioception, intrathecal injection, rats) was 0.48 (0.45–0.52) mg. For the same molecule, the “Mean value ED25” value (Male Sprague-Dawley rats [2]; [5]) was 0.39 mg, the “Mean value ED50” value (Male Sprague-Dawley rats [2]; [5]) was 0.50 mg and the “Mean value ED75” value (Male Sprague-Dawley rats [2]; [5]) was 0.65 mg. The ED50 (Male Sprague-Dawley rats [3]; Rattus norvegicus, sc, infiltrative cutaneous anesthesia, subcutaneous injection, rats, read-out: ED50 (95% CI)) was 2.05 mg/kg, the “% MPE” value (Male Sprague-Dawley rats [3]; [6]) was 67 ± 8 % MPE and the “AUC (% min.)” value (Male Sprague-Dawley rats [3]; [6]) was 2300 ± 440 % min. For the same molecule, the “Duration” value (Male Sprague-Dawley rats [3]; [6]) was 58 ± 4 min, the ED25 (Male Sprague-Dawley rats [3]; [7]) was 1.35 mg/kg and the ED75 (Male Sprague-Dawley rats [3]; [7]) was 3.11 mg/kg. For the same molecule, the “duration of cutaneous anesthesia compared with lidocaine hydrochloride” value (Male Sprague-Dawley rats [3]; same effective doses (ED25, ED50 or ED75), rats) was “longer duration”, the “% MPE of cutaneous nociceptive block” value (Male Sprague-Dawley rats [3]; [8]) was 71±8 % MPE and the “duration of cutaneous nociceptive block” value (Male Sprague-Dawley rats [3]; [8]) was “approximately 50±5 minutes”. For the same molecule, the “effect of co-administration with lidocaine hydrochloride on cutaneous nociceptive blockade” value (Male Sprague-Dawley rats [3]; subcutaneous, rats, ED50 of each drug) was “additive effect”.
